According to US12319677B2, “Process for the production of 5-(4-((2S,5S)-5-(4-chlorobenzyl)-2-methyl-morpholino)piperidin-1-yl)-1H-1,2,4-triazol-3-amine” (Molecure S.A., priority 2019, dated 2025):
Several values for one entry are separate records, joined by “and”; a condition that tells them apart may be missing. Equal values may be shown once.

Key:
Format in all cases: physicochemical
[1] = Particle size distribution (PSD), Malvern Mastersizer 2000 in Isopar G; settings: three batches of the anhydrous form made by method D
Text: The synthesis of the compound of formula 1 hydrated form I followed by the synthesis of the compound of the formula 1 anhydrous form has a significant advantage as compared to the synthesis of the compound of formula 1 described in WO 2017/037670. Under new conditions, the precipitation of the compound of the formula 1 hydrated form I unobviously allows to control the amount of residual hydrazine which is considered as a genotoxic impurity and must be controlled at ppm levels. The method outlined in the previous paragraph was used for the synthesis of three batches of the anhydrous form of the compound of formula 1. This material was carefully analyzed for purity, residual hydrazine level and particle size distribution.
PSD data were recoded with Malvern Mastersizer 2000 in Isopar G.

[2] = Solid-state stability of the hydrated forms upon drying; settings: leads to amorphous form
Text: Due to the fact that the compound of formula 6 is not stable in methanol, it is not possible to obtain the hydrated form II directly from the compound 6 as for hydrated form I of the compound of formula 1. Both hydrated forms I and II of the compound of formula 1 are unstable, leading to amorphous form upon drying. The XPRD data for the dried material and data calculated from X-ray structure differ. […] The amorphous form of the compound of formula 1 can be prepared in a more convenient way by melting the anhydrous form or hydrated form I or II of the compound of formula 1 followed by cooling off the material to ambient temperature. After grinding the glass-like solid, […] of the compound of formula 1 is an off-white solid.

[3] = Stability of process intermediates (in methanol / as free base)
Text: Under conditions described in the patent application WO 2017/037670 (sodium triacetoxy-borohydride, acetic acid and 1,2-dichloroethane), the compound of formula 11 reacts with N-Boc-4-piperidinone leading to a by-product of formula 12 which is observed in crude compound of formula 3. The impurity of formula 12 can be removed by the careful purification on silica gel but such an approach is unacceptable on a kilo-scale. […] Since the compound of formula 11 can be easily removed by crystallization after removal of the tert-butoxycarbonyl protection group, the present invention relates to a method for the synthesis of the compound of formula 5 with no impurity of formula 13. Moreover, the conditions described in this application unobviously allow one to use hydrochloride salt of the compound of formula 2 as the starting material which can facilitate the process. […]
Due to the fact that the compound of formula 6 is not stable in methanol, it is not possible to obtain the hydrated form II directly from the compound 6 as for hydrated form I of the compound of formula 1. […] The XPRD data for the dried material and data calculated from X-ray structure differ. […]

C[C@H]1CN(C2CCN(c3nc(N)n[nH]3)CC2)[C@@H](Cc2ccc(Cl)cc2)CO1 [1, anhydrous form, 5-(4-((2S,5S)-5-(4-chlorobenzyl)-2-methylmorpholino)piperidin-1-yl)-1H-1,2,4-triazol-3-amine]
Particle size distribution D10 [1]: 152 μm and 202 μm and 154 μm
Particle size distribution D50 [1]: 255 μm and 357 μm and 284 μm
Particle size distribution D90 [1]: 403 μm and 577 μm and 485 μm

C[C@H]1CN(C2CCN(c3nc(N)n[nH]3)CC2)[C@@H](Cc2ccc(Cl)cc2)CO1 [1, hydrated form I, 5-(4-((2S,5S)-5-(4-chlorobenzyl)-2-methylmorpholino)piperidin-1-yl)-1H-1,2,4-triazol-3-amine]
Stability of crystalline form [2]: unstable

C[C@H]1CN[C@@H](Cc2ccc(Cl)cc2)CO1 [compound 2, (2S,5S)-5-(4-chlorobenzyl)-2-methylmorpholine]
Stability of free base ([3]; free base (oil), must be kept as a salt to prevent decomposition): limited stability

CS/C(=N\C#N)N1CCC(N2C[C@H](C)OC[C@@H]2Cc2ccc(Cl)cc2)CC1 [compound 6, methyl (Z)-4-((2S,5S)-5-(4-chlorobenzyl)-2-methylmorpholino)-N-cyanopiperidine-1-carbimidothioate]
Stability in methanol ([3]; in methanol): not stable
